Results on 13 molecules are retold here after US20090137572A1, “2-substituted-4-heteroaryl-pyrimidines useful for the treatment of proliferative disorders” (priority 2004, published 2009).

In data set [1] the target is CDK7/cyclin H (Homo sapiens, UniProt P50613). The data set is described as follows: CDK 7 assay (CTD peptide substrate). It counts as biochemical. The note with it: read-out: Kinase Inhibition pIC50 CDK7-cyclin H (converted). The procedure, abridged:
(§1)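 Inhibition measured against recombinant human kinase/cyclin complex phosphorylating biotin-(Tyr-Ser-Pro-Thr-Ser-Pro-Ser)4 peptide, 100 μM radiolabelled ATP, 45 min at 30° C. Product quantified by filter capture and scintillation counting.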

Data set [2] concerns the target CDK2-cycline E (Homo sapiens, UniProt P24941). In words: Kinase assay (radioactive phosphate incorporation), CDK2-cyclin E. It counts as biochemical. The note with it: read-out: Kinase Inhibition pIC50 CDK2-cycline E (converted). The procedure, abridged:
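Each recombinant kinase was combined with its polypeptide substrate in pH 7.4 assay buffer. Mg/ATP mix carrying [γ-32P]-ATP (100 μM ATP) was then added and the plate incubated at 30° C. After stopping on ice, the reaction was filtered, washed with 75 mM orthophosphoric acid, dried and counted.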

Data set [3] deals with CDK4-cyclin D1 (Homo sapiens, UniProt P11802). The data set is described as follows: Kinase assay (radioactive phosphate incorporation), CDK4-cyclin D1. The note with it: read-out: Kinase Inhibition pIC50 CDK4-cyclin D1 (converted). The data set is classed as biochemical. The method, then:
(§2) Kinase assays. The compounds of the invention above were investigated for their ability to inhibit the enzymatic activity of various protein kinases (Table 2). This was achieved by measurement of incorporation of radioactive phosphate from ATP into appropriate polypeptide substrates. Recombinant protein kinases and kinase complexes were produced or obtained commercially. Assays were performed using 96-well plates and appropriate assay buffers (typically 25 mM β-glycerophosphate, 20 mM MOPS, 5 mM EGTA, 1 mM DTT, 1 mM […], pH 7.4), into which were added 2-4 μg of active enzyme with appropriate substrates. The reactions were initiated by addition of Mg/ATP mix (15 mM MgCl2+100 μM ATP with 30-50 kBq per well of [γ-^32P]-ATP) and mixtures incubated as required at 30° C. Reactions were stopped on ice, followed by filtration through p81 filterplates or GF/C filterplates (Whatman Polyfiltronics, Kent, UK). After washing 3 times with 75 mM aq orthophosphoric acid, plates were dried, scintillant added and incorporated radioactivity measured in a scintillation counter (TopCount, Packard Instruments, Pangbourne, Berks, UK). Compounds for kinase assay were made up as 10 mM stocks in DMSO and diluted into 10% DMSO in assay buffer.

In data set [4] the target is CDK9/cyclin T1 (Homo sapiens, UniProt P50750). In words: CDK 9 assay (CTD peptide substrate). It counts as biochemical. The note with it: read-out: Kinase Inhibition pIC50 CDK9-cyclin T1 (converted). The procedure, abridged: as §1
CDK9/cyclin T1, sequence (P50750 whole entry): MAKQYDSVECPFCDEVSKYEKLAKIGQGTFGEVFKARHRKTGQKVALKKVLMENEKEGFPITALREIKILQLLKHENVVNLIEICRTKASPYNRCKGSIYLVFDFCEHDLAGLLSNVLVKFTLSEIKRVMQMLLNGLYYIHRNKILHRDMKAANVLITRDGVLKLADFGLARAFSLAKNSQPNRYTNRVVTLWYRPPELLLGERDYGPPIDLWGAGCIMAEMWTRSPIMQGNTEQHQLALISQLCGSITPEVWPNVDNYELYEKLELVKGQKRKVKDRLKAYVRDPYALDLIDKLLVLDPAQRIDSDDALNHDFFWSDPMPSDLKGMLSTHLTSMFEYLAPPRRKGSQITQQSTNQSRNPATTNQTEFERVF
CDK9/cyclin T1, sequence (O60563 whole entry partner): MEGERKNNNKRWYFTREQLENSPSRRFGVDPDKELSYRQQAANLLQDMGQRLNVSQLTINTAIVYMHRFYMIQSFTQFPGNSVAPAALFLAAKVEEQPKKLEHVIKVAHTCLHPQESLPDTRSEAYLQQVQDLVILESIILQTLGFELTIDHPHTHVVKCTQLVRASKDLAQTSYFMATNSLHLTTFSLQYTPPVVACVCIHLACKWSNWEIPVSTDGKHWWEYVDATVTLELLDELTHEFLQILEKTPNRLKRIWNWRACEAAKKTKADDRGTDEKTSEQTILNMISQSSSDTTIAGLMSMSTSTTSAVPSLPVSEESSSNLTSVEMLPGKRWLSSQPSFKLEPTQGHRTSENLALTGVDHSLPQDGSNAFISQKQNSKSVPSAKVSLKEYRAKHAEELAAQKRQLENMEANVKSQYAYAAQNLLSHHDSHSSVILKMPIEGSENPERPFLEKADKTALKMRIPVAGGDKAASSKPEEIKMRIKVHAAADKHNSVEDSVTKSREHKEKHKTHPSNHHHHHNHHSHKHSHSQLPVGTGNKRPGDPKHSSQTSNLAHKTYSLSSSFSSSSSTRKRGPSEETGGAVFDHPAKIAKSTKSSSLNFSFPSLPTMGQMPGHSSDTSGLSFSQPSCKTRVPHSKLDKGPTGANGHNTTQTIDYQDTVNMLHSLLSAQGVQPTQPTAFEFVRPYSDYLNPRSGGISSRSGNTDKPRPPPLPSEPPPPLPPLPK
The target of data set [5] is T1, Aurora A kinase (Homo sapiens, UniProt O14965).
T1 construct: purchased
T1 sequence (O14965 1-403): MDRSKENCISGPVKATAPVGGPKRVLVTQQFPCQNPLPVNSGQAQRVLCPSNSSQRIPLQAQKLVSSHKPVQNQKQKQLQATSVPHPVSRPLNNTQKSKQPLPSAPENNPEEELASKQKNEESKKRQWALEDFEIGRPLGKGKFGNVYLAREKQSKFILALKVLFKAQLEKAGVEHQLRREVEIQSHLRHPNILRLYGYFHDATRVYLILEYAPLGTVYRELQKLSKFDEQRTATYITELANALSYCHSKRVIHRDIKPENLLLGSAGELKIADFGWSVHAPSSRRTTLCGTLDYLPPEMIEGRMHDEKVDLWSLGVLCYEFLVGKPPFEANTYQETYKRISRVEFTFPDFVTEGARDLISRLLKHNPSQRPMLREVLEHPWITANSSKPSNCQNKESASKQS
In words: Aurora-A (human) kinase assay (Kemptide substrate). It counts as biochemical. As to conditions: pIC50 is -log(IC50, M); 15 μM ATP; read-out: Kinase Inhibition pIC50 Aurora A kinase (converted). The procedure, abridged: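 Kemptide (LRRASLG, 200 μM) phosphorylation by 5-10 ng commercial aurora-A measured as [γ-33P] incorporation at 15 μM ATP with 10 mM Mg acetate, pH 7.0 MOPS buffer. Reaction ran 40 min at room temperature; acid-stopped, captured on P81 filters, scintillation read.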

Data set [6] has as its target GSK3b (Homo sapiens, UniProt P49841). In words: Kinase assay (radioactive phosphate incorporation), GSK-3b. The data set is classed as biochemical. As to conditions: read-out: Kinase Inhibition pIC50 GSK-3b (converted). As to the method:
as §2

For data set [7], the target named is T2, Flt3 (FMS-like tyrosine kinase-3) (Homo sapiens, UniProt P36888).
T2 sequence (P36888 27-993): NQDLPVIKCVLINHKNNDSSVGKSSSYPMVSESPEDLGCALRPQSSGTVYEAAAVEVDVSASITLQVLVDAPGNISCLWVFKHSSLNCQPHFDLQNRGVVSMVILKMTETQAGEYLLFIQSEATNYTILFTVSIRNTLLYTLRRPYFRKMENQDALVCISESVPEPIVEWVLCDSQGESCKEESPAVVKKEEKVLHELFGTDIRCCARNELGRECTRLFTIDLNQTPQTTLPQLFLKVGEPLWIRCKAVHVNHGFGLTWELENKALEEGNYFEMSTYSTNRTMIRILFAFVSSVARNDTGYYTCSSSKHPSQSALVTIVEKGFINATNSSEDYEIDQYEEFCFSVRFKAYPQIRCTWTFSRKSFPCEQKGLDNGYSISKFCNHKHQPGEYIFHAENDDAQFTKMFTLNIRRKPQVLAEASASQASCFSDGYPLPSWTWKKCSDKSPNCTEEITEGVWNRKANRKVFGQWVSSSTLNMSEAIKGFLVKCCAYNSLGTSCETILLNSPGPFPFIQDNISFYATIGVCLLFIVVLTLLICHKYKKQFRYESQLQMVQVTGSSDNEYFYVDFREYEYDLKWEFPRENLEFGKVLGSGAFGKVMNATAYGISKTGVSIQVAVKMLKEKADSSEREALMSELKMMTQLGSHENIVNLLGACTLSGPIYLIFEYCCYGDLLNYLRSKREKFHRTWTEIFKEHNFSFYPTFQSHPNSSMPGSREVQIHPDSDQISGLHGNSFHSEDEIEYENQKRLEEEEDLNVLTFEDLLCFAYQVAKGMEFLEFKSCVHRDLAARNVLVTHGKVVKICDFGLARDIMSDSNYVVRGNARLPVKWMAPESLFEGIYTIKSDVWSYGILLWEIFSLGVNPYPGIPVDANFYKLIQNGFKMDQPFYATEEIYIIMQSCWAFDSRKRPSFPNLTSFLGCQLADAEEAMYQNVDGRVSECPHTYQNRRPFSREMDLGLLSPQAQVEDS
In words: Kinase assay (radioactive phosphate incorporation), Flt3. The data set is classed as biochemical. The note with it: pIC50 is -log(IC50, M), read-out: Kinase Inhibition pIC50 Flt3 (converted). The method, then:
as §2

The target of data set [8] is CDK1-cyclin B (Homo sapiens, UniProt P06493). The data set is described as follows: Kinase assay (radioactive phosphate incorporation), CDK1-cyclin B. It counts as biochemical. The note with it: read-out: Kinase Inhibition pIC50 CDK1-cyclin B (converted). As to the method: as §2
CDK1-cyclin B, sequence (P06493 whole entry): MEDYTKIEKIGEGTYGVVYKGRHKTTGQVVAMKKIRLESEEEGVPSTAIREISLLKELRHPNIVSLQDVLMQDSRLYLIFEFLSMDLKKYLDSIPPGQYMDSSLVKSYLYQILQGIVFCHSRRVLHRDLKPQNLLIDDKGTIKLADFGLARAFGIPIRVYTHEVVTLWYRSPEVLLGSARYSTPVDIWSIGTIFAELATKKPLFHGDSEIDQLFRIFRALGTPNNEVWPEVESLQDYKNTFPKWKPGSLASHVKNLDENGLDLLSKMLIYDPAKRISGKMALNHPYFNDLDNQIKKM
CDK1-cyclin B, sequence (P14635 whole entry partner): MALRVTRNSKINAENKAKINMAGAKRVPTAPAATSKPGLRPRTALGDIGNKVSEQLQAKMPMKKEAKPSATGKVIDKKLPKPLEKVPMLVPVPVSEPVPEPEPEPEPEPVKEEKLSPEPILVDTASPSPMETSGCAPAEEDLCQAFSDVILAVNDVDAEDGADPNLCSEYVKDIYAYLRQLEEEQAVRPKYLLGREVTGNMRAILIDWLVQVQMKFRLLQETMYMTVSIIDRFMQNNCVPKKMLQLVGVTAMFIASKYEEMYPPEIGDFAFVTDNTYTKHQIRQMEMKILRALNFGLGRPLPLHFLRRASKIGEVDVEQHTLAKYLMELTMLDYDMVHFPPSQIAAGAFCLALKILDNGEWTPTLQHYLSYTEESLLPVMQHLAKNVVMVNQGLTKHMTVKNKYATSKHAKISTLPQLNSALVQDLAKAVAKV

CDK4-cyclin D1, sequence (P11802 whole entry): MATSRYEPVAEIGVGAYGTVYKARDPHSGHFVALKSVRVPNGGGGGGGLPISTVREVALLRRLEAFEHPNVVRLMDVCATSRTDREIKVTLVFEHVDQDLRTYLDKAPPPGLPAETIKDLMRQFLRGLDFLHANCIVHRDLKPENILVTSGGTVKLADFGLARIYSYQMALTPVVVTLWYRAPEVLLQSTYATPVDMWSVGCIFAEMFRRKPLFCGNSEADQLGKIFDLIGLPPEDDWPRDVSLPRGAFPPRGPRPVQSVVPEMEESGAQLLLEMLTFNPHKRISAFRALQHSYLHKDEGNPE
CDK4-cyclin D1, sequence (P24385 whole entry partner): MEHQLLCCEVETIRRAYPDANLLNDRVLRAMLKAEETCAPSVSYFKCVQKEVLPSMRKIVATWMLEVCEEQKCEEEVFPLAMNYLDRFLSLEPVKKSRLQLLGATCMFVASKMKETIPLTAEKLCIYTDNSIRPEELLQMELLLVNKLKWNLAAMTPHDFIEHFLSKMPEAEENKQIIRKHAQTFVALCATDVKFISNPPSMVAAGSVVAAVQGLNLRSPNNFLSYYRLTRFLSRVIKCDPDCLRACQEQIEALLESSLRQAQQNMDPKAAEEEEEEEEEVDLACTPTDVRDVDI
GSK3b, sequence (P49841 whole entry, species assumed): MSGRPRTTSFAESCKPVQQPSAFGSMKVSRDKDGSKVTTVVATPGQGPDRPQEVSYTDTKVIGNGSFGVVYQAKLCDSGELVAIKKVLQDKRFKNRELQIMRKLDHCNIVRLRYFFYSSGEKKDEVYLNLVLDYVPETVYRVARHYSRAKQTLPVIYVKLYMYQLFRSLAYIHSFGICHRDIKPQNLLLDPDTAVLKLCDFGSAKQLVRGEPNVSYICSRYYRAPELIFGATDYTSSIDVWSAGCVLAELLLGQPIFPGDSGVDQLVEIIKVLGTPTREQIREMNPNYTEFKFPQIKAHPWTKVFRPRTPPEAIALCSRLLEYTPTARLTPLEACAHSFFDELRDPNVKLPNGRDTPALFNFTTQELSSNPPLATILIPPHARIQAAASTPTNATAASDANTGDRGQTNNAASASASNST
CDK7/cyclin H, sequence (P50613 whole entry): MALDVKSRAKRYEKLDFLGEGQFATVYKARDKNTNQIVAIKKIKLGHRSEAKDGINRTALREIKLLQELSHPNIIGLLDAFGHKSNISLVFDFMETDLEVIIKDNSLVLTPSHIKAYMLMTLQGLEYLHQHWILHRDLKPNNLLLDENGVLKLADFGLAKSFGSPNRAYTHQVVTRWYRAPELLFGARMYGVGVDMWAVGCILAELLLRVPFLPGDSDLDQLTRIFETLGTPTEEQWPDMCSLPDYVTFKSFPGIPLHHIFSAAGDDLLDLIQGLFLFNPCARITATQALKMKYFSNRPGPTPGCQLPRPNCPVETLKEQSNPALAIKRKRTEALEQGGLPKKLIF
CDK7/cyclin H, sequence (P51946 whole entry partner): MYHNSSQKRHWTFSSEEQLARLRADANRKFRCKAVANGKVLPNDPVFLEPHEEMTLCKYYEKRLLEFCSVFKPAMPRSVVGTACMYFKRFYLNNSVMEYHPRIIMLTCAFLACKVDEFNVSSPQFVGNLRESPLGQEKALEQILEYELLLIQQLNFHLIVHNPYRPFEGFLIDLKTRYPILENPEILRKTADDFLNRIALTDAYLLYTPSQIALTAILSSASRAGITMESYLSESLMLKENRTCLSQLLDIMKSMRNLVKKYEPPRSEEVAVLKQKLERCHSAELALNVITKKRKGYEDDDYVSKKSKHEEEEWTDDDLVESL

For the molecule `CCNc1nc(C)c(-c2ccnc(NCc3cccnc3)n2)s1` [Compound 79, [4-(2-Ethylamino-4-methyl-thiazol-5-yl)-pyrimidin-2-yl]-pyridin-3-ylmethyl-amine], the IC50 in data set [1] was 6310 nM; in [2], 6310 nM; in data set [3], 3160 nM; in data set [4], 1580 nM.

Consider `CCNc1nc(C)c(-c2ccnc(Nc3ccc(C)c(S(=O)(=O)N4CCOCC4)c3)n2)s1` [Compound 36, [4-(2-Ethylamino-4-methyl-thiazol-5-yl)-pyrimidin-2-yl]-[4-methyl-3-(morpholine-4-sulfonyl)-phenyl]-amine], for which the IC50 in data set [1] is 1260 nM; in data set [5], 12.6 nM; in data set [6], 3980 nM; in [4] it was 39.8 nM.

As to `COc1cc(Nc2nccc(-c3sc(N)nc3C)n2)cc(OC)c1` [Compound 161, [4-(2-Amino-4-methyl-thiazol-5-yl)-pyrimidin-2-yl]-(3,5-dimethoxy-phenyl)-amine], the melting point (in general, the temperature, or range, at which the solid turns liquid) was in the range of 269 to 271 °C. Moreover, the IC50 in data set [2] is 158 nM. Besides, in data set [5], the IC50 was 100 nM. In data set [7], the IC50 was 5.01 nM.

As to `CCNc1nc(C)c(-c2ccnc(Nc3cc(OC)c(OC)c(OC)c3)n2)s1` [Compound 24, [4-(2-Ethylamino-4-methyl-thiazol-5-yl)-pyrimidin-2-yl]-(3,4,5-trimethoxy-phenyl)-amine], the IC50 in [5] was 2.51 nM; in data set [7] it was 7.94 nM; in data set [8] it was 2000 nM; in [4] it was 31.6 nM.

For the molecule `Cc1nc(C)c(-c2ccnc(Nc3cccc(CNC(=O)c4ccccn4)c3)n2)s1` [Compound 91, Pyridine-2-carboxylic acid 3-[4-(2,4-dimethyl-thiazol-5-yl)-pyrimidin-2-ylamino]-benzylamide], the IC50 in [2] was 398 nM; in data set [5] it was 794 nM; in data set [7] it was 251 nM; in data set [6] it was 3980 nM.

With `CCNc1nc(C)c(-c2ccnc(Nc3cccc(S(=O)(=O)NCc4ccccc4)c3)n2)s1` [Compound 80, N-Benzyl-3-[4-(2-ethylamino-4-methyl-thiazol-5-yl)-pyrimidin-2-ylamino]-benzenesulfonamide], the IC50 in data set [5] was 398 nM; in data set [6] it was 2510 nM; in [4], 251 nM.

For the molecule `CC(=O)N1CCN(c2ccc(Nc3nccc(-c4sc(N)nc4C)n3)cc2)CC1` [Compound 57, 1-(4-{4-[4-(2-Amino-4-methyl-thiazol-5-yl)-pyrimidin-2-ylamino]-phenyl}-piperazin-1-yl)-ethanone], the IC50 in data set [1] was 15800 nM; in [5], 63.1 nM; in [8] it was 79400 nM; in data set [3], 10000 nM; in [4] it was 10000 nM.

Consider `CCNc1nc(C)c(-c2ccnc(Nc3cccc(S(=O)(=O)NCC)c3)n2)s1` [Compound 29, N-Ethyl-3-[4-(2-ethylamino-4-methyl-thiazol-5-yl)-pyrimidin-2-ylamino]-benzenesulfonamide], for which the IC50 is 794 nM in data set [1]; 316 nM in [2]; 50.1 nM in data set [5]; 1000 nM in [7]; 398 nM in data set [3]; 10 nM in [4].

On to `CCNc1nc(C)c(-c2ccnc(Nc3cccc(S(=O)(=O)NC(C)(C)CO)c3)n2)s1` [Compound 84, 3-[4-(2-Ethylamino-4-methyl-thiazol-5-yl)-pyrimidin-2-ylamino]-N-(2-hydroxy-1,1-dimethyl-ethyl)-benzenesulfonamide], for which the IC50 is 1580 nM in data set [1]; 631 nM in [2]; 25.1 nM in [5]; 2510 nM in data set [6]; 158 nM in [4].

With `CC(=O)N1CCN(c2ccc(Nc3nccc(-c4sc(N(C)c5cccnc5)nc4C)n3)cc2)CC1` [Compound 164, 1-[4-(4-{4-[4-Methyl-2-(methyl-pyridin-3-yl-amino)-thiazol-5-yl]pyrimidin-2-ylamino}-phenyl)-piperazin-1-yl]-ethanone], the melting point fell in the range of 205 to 206 °C. For the same molecule, the IC50 in data set [1] is 3980 nM. For the same molecule, the IC50 in [2] was 398 nM. Further, the IC50 in [5] is 31.6 nM. The IC50 in data set [7] is 25.1 nM. In addition, the IC50 in [4] was 2000 nM.

On to `COc1cc(Nc2nccc(-c3sc(NCCc4ccccc4)nc3C)n2)cc(OC)c1OC` [Compound 165, [4-(4-Methyl-2-phenethylamino-thiazol-5-yl)-pyrimidin-2-yl]-(3,4,5-trimethoxy-phenyl)-amine], for which the melting point lay within 184 to 186 °C. In data set [2], the IC50 is 2510 nM. In addition, the IC50 in [5] was 63.1 nM. Besides, the IC50 in data set [7] is 20 nM.

Molecule `Cc1nc(-c2cccnc2)sc1-c1ccnc(Nc2ccc(N3CCOCC3)cc2)n1` [Compound 100, [4-(4-Methyl-2-pyridin-3-yl-thiazol-5-yl)-pyrimidin-2-yl]-(4-morpholin-4-yl-phenyl)-amine] gave a melting point of 240 to 242 °C. Besides, in data set [5], the IC50 is 251 nM. Further, the IC50 in [7] was 316 nM.

Turning to `CC(=O)N1CCN(c2ccc(Nc3nccc(-c4sc(NCCc5ccccc5)nc4C)n3)cc2)CC1` [Compound 163, 1-(4-{4-[4-(4-Methyl-2-phenethylamino-thiazol-5-yl)-pyrimidin-2-ylamino]-phenyl}-piperazin-1-yl)-ethanone], the melting point was in the range of 212 to 213 °C. The IC50 in [1] is 2510 nM. For the same molecule, the IC50 in data set [2] is 1260 nM. The IC50 in [5] is 63.1 nM. Besides, the IC50 in [7] is 126 nM. The IC50 in data set [4] was 631 nM.
